Source: patent publication US20110152207A1, “USE OF VITAMIN D GLYCOSIDES AND SULFATES FOR TREATMENT OF DISEASE” (priority 2009, published 2011)
Marks after values point to notes of the source that are not given here.

Tests used:
[1] = Plasma 1,25-D3 concentration in mice after a single oral dose (RIA)
[2] = system: DU-145 cells; assay: DU-145 cell proliferation (CELLTITER BLUE); format: cell-based, human; conditions: for Proliferation index (Mean ± SEM): 4 days, control = 100
Method: LNCaP cells (ATCC # CRL-1740) are malignant prostate cancer cells originally obtained from a lymph node of a person whose prostatic cancer had metastasized to the lymph node. LNCaP cells were grown in tissue culture using RPMI-1640 media with 10% fetal bovine serum. Wells of two 48-well tissue culture plates were seeded with 5000 LNCaP cells/well. […] Half the media was replaced with fresh media with treatments on the third day of the treatment period. By day 6 of treatment, wells of control untreated cells were approximately 60% confluent. The live cell numbers in each well at the end of treatment were assessed using the “CELLTITER BLUE”-brand assay kit (Promega Corp., Madison, Wis.). The assay is based on the ability of living cells to convert a redox dye (resazurin) into a fluorescent end product (resorufin). […] A similar study was performed using a second human-derived prostatic cancer cell line known as DU-145 (ATCC# HTB-81). […] Exp. Med. Biol. 1995 375:53-63). The DU-145 cells were propagated in Eagle's Minimum Essential Medium with 10% fetal bovine serum. The cells were treated in culture for just 4 days, with half the media replaced with fresh media on day 3 of treatment. Cells were 40% confluent at the end of treatment.

[3] = system: Cyp24; assay: Cyp24 mRNA expression in duodenum of mice after a single oral dose; format: in vivo; conditions: for Cyp24 expression in the duodenum, induction over control mice: 24 pmol per os
Method: (§1) Mice were decapitated 6 hrs later following light anesthesia under inhaled halothane. […] Tissue samples were flushed with ice-cold phosphate-buffered saline and immediately homogenized in 1 ml of TRIzol® reagent (Invitrogen Corp., Carlsbad, Calif.). Samples were then kept frozen at −86° C. prior to processing for RNA. For processing RNA, each TRIzol® homogenate was thawed at room temperature and 500 μl placed in a clean microfuge tube, mixed thoroughly with 100 μl chloroform for 15 sec and then centrifuged at 12,000×g for 15 min at 4° C. The upper aqueous phase was removed and mixed with 0.93 volumes of 75% EtOH. The mixture was then applied to an RNeasy spin column (Qiagen Inc., Germantown, Md.) and processed as described by the manufacturer with the exception that an additional wash with 2M NaCl/2 mM EDTA (pH 4.0) was included (Das et al. J Vet Diagn Invest. 2009; 21:771-778). RNA was eluted in 50 μl of water and the concentration obtained by UV spectrometry. One microgram of RNA was then used as a template for production of cDNA in a 20-μl reaction volume using random hexamers and Superscript III as described by the manufacturer (Invitrogen, Carlsbad, Calif.). Afterwards, samples were diluted to 100 μl final volume with TE buffer and stored at −20° C. prior to PCR analysis. Quantitative real-time RT-PCR was performed using a Stratagene Mx3005p cycler (Stratagene, La Jolla, Calif.) and PerfeCTa® SYBR® Green FastMix®, ROX reagent (Quanta Biosciences, Gaithersburg, Md.). Amplification of target cDNAs was accomplished with the following primers: Aliquots (8.3 ng) of cDNA were amplified under the following conditions: 95° C. for 30 sec, followed by 45 cycles of 95° C. for 1 sec and 57° C. for 30 sec. […] Oligonucleotides were obtained from Integrated DNA Technologies (Coralville, Iowa).

[4] = system: DSS-induced inflammation of the lower colon; assay: Dextran sodium sulfate (DSS) mouse model of IBD; format: in vivo; conditions: DSS mice; for Fecal Blood Score: scale 0-3
Description: In this example, β-gluc-1,25-D3 compounds, alone or in combination with 25-β-glucuronide-25-hydroxyvitamin D3 compounds (hereinafter β-gluc-25-D3) were incorporated into the diet of mice and compared to equimolar 1,25-D3 with respect to therapeutic effects on IBD and induction of calcemia. A standard mouse model of IBD comprising administering dextran sodium sulfate (DSS) to induce inflammation of the lower colon was used to study these effects. Vitamin D treatments were first initiated for 4 days. After 4 days, mice were fed DSS-water for 7 days, allowed one day to recover, and sacrificed. Colon length, plasma calcium, fecal blood score, and body weight were assayed. Colon length is a standard marker of intestinal inflammation in the literature, with shortened colon length being an indicator of inflammation. A 1-cm section of the mid-colon was removed, fixed in formalin, and stained with hematoxylin & eosin for microscopic histopathologic evaluation by a veterinary pathologist blinded to the treatments. Each tissue section received a score from 0 to 4 reflecting absence of lesion to severe, extensive lesion for each of three criteria: (1) the degree of erosion/ulceration of colon mucosa; (2) the degree of infiltration of the tissues by inflammatory cells; and (3) the degree of submucosal edema. The sum of the score of each of these criteria constitutes the histopathological score for the tissue with a zero score representing normal tissue based on all criteria, and the worst possible outcome being a score of 12.

[5] = system: Cyp24; assay: Cyp24 mRNA expression in colon of mice after a single oral dose; format: in vivo; conditions: 6 hrs; for increase in Cyp24 expression in the colon: relative to untreated mice
Method: as §1

## C=C1/C(=C\C=C2/CCC[C@]3(C)[C@@H]([C@H](C)CCCC(C)(C)O[C@@H]4O[C@H](C(=O)O)[C@@H](O)[C@H](O)[C@H]4O)CC[C@@H]23)C[C@@H](O)C[C@@H]1O [β-gluc-1,25-D3, 25-β-glucuronide-1,25-dihydroxyvitamin D3]
[1]; 6 pmol per os, 6 hr time point
  plasma 1,25-D3 concentration: not significantly increased
[1]; 24 pmol per os
  peak plasma 1,25-D3, fold over control mouse plasma 1,25-D3: 3.5 fold
  peak plasma concentration of 1,25-D3: 325 pg/mL
  time of peak plasma 1,25-D3 concentration: approximately 3 hr
[1]; 24 pmol per os, 24 hrs after treatment
  plasma 1,25-D3 concentration: slightly below the concentration observed in control animals
[1]; 6 hrs following treatment, each dose 6-48 pmol
  levels of 1,25-D3 in the blood, 1,25-D3 versus β-gluc-1,25-D3: comparable at each concentration
[2]; DU-145, 20 nM
  Proliferation index (Mean ± SEM): 90.3 ± 2.2
[2]; DU-145, 100 nM
  Proliferation index (Mean ± SEM): 88.7 ± 2.8
[2]; DU-145 cells
  reducing cell proliferation versus native hormone: as active as the native hormone
[3]; 3 hours
  Cyp24 expression in the duodenum, induction over control mice: 1300 fold
[3]; 6 hours
  Cyp24 expression in the duodenum, induction over control mice: 500 fold
[3]; 6, 12, 24, 48 pmol per os, 6 hrs
  induction of Cyp24 in the duodenum versus analogous dose of 1,25-D3: consistently less effective than the analogous dose of 1,25-D3
[4]; 14 ng/day
  Histopathology score (0-12): 6.66 ± 0.53^c
  Fecal Blood Score: 0.55 ± 0.26
[4]; 14 ng/day in diet
  Colon Length: 5.78 ± 0.09 cm
  Final Body Weight: 21.91 ± 0.49 g
[4]; 70 ng/day
  Histopathology score (0-12): 6.33 ± 0.74^c
  Fecal Blood Score: 0.22 ± 0.08^c
[4]; 70 ng/day in diet
  Colon Length: 5.41 ± 0.15 cm
  Final Body Weight: 21.00 ± 0.68 g
[4]; 350 ng/day
  Histopathology score (0-12): 8.33 ± 0.64
  Fecal Blood Score: 0.88 ± 0.43
[4]; 350 ng/day in diet
  Colon Length: 4.72 ± 0.15 cm
  Final Body Weight: 19.62 ± 0.69 g
[4]; alone at 70 ng/day
  reducing inflammation: numerically better than 1,25-D3
[5]; 12 pmol per os
  colon Cyp24 response relative to the equimolar dose of 1,25-D3: about 20 times
  increase in Cyp24 expression in the colon: 60 fold
[5]; 24 pmol per os
  increase in Cyp24 in the colon over control mice: about 700 fold
[5]; 48 pmol per os
  increase in Cyp24 expression in the colon: > 400 fold
